Reference: PMC6934184, “Selective DNA-PKcs inhibition extends the therapeutic index of localized radiotherapy and chemotherapy” (The Journal of Clinical Investigation, 2019)

Target: T1, KIT A829P (Homo sapiens, UniProt P10721, A829P)
T1 construct: purchased Thermo Fisher Scientific (Life Technologies) SelectScreen
Assay: SelectScreen LanthaScreen
Assay type: binding
Settings: read-out: % displacement
Outline: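 SelectScreen broad panel; activity (Z'LYTE, Adapta) plus binding formats. ATP: Km app for CSF1R Z'LYTE; 10 for CAMK1 Adapta. Readout = % per kinase.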

T1 sequence (P10721 26-976 A829P): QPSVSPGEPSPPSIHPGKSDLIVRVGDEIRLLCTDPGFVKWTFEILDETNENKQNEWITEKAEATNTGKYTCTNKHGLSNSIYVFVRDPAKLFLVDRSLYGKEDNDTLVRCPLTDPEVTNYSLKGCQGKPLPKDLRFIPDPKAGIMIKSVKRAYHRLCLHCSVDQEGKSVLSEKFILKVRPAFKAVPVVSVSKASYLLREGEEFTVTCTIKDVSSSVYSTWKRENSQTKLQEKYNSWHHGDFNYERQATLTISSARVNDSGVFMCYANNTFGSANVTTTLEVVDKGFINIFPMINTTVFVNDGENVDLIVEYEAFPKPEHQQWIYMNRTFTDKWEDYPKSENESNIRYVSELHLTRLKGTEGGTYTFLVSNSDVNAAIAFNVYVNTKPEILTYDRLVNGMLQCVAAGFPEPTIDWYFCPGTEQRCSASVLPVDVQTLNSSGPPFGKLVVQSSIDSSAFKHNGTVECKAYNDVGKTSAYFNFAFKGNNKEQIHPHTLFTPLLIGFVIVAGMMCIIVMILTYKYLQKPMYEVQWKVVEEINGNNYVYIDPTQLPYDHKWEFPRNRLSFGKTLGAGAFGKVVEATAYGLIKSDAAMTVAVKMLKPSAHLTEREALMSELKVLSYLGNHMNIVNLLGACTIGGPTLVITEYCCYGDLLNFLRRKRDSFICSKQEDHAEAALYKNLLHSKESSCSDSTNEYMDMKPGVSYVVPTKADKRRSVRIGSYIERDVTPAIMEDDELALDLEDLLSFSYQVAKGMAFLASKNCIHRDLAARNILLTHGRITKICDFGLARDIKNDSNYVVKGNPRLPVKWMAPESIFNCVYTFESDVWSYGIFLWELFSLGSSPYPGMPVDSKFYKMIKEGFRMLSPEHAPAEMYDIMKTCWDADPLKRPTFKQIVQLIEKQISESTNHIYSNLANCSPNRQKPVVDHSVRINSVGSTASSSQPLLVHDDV

`CN(C(=O)CN1CCOCC1)c1ccc2sc3c(-c4cccc5c(=O)cc(N6CC7CCC(C6)O7)oc45)cccc3c2c1` [NU5455] gave an inhibition at 1 µM of 0.7%.
